{
  "source": "patent US20180311217A1",
  "about": "“METHODS OF TREATMENT AND COMPOSITIONS WITH XANTHINE OXIDASE INHIBITORS” (Takeda Pharmaceuticals U.S.A., Inc., priority 2013, published 2018)",
  "test_system": "hyperuricemic gout subjects with moderate to severe renal impairment",
  "test": "Example 1 study: eGFR using the MDRD formula",
  "assay_type": "in vivo, human",
  "details": "for change in eGFR over time: prior use of ACEi; for change in eGFR levels over time: prior use of ARB; for change in mean eGFR levels: subjects with moderate renal impairment",
  "description": "Following the Study Day 1 Visit, subjects returned to the clinic for study visits at Day 14, Months 1, 3, 6, 9 and for a final visit at Month 12/ET Visit. […] Gout flare assessments were collected at each visit. Estimated GFR by Modification of Diet in Renal Disease (MDRD) calculation was performed by the Central Laboratory at all visits. Blood pressure (clinic with standardized instruments) was measured throughout the study. Adverse events, electrocardiograms (ECGs), clinical laboratory tests, and vital signs were collected at each visit.\nThe secondary efficacy variables for this study included change from baseline to Month 12 in eGFR using the MDRD formula; and percentage of subjects with sUA<6.0 mg/dL at Month 12.\nAn ANCOVA analysis similar to the primary analysis was used for analysis of eGFR. Subgroup analyses were also summarized for eGFR as for the primary endpoint.",
  "data": [
    {"compound": "Cc1nc(-c2ccc(OCC(C)C)c(C#N)c2)sc1C(=O)O", "note": "[Febuxostat, 2-[3-cyano-4-(2-methylpropoxy)phenyl]-4-methylthiazole-5-carboxylic acid]", "values": [
      {"measurement": "eGFR using MDRD formula, Change from Baseline", "setting": "30 mg BID, Day 14", "result": "−0.99", "unit": "mL/min/1.73 m^2"},
      {"measurement": "eGFR using MDRD formula, Mean (SD)", "setting": "30 mg BID, Day 14", "result": "33.25 (8.042) mL/min/1.73 m^2"},
      {"measurement": "eGFR using MDRD formula, Change from Baseline", "setting": "30 mg BID, Month 1", "result": "−1.48", "unit": "mL/min/1.73 m^2"},
      {"measurement": "eGFR using MDRD formula, Mean (SD)", "setting": "30 mg BID, Month 1", "result": "32.99 (8.305) mL/min/1.73 m^2"},
      {"measurement": "eGFR using MDRD formula, Change from Baseline", "setting": "30 mg BID, Month 3", "result": "−0.72", "unit": "mL/min/1.73 m^2"},
      {"measurement": "eGFR using MDRD formula, Mean (SD)", "setting": "30 mg BID, Month 3", "result": "33.52 (9.005) mL/min/1.73 m^2"},
      {"measurement": "eGFR Change from Baseline, LS mean (SE)", "setting": "30 mg BID, Month 6", "result": "0.03 (0.955) mL/min/1.73 m^2"},
      {"measurement": "eGFR Change from Baseline, LS mean difference (SE) from placebo group", "setting": "30 mg BID, Month 6", "result": "1.74 (1.374) mL/min/1.73 m^2"},
      {"measurement": "eGFR using MDRD formula, Change from Baseline", "setting": "30 mg BID, Month 6", "result": "−0.06", "unit": "mL/min/1.73 m^2"},
      {"measurement": "eGFR using MDRD formula, Mean (SD)", "setting": "30 mg BID, Month 6", "result": "34.18 (8.004) mL/min/1.73 m^2"},
      {"measurement": "eGFR using MDRD formula, Change from Baseline", "setting": "30 mg BID, Month 9", "result": "−0.91", "unit": "mL/min/1.73 m^2"},
      {"measurement": "eGFR using MDRD formula, Mean (SD)", "setting": "30 mg BID, Month 9", "result": "33.33 (9.468) mL/min/1.73 m^2"},
      {"measurement": "eGFR Change from Baseline, LS mean (SE)", "setting": "30 mg BID, Month 12", "result": "0.33 (1.172) mL/min/1.73 m^2"},
      {"measurement": "eGFR Change from Baseline, LS mean difference (SE) from placebo group", "setting": "30 mg BID, Month 12", "result": "2.38 (1.687) mL/min/1.73 m^2"},
      {"measurement": "eGFR using MDRD formula, Change from Baseline", "setting": "30 mg BID, Month 12", "result": 0.32, "unit": "mL/min/1.73 m^2"},
      {"measurement": "eGFR using MDRD formula, Mean (SD)", "setting": "30 mg BID, Month 12", "result": "34.56 (9.382) mL/min/1.73 m^2"},
      {"measurement": "eGFR Change from Baseline, LS mean (SE)", "setting": "30 mg BID, Month 12, listed as febuxostat", "result": 0.33, "unit": "mL/min/1.73 m^2"},
      {"measurement": "change in eGFR over time", "setting": "30 mg BID", "result": "slight improvements"},
      {"measurement": "change in eGFR levels over time", "setting": "30 mg BID", "result": "modest improvements"},
      {"measurement": "change in eGFR over time compared with placebo", "setting": "30 mg BID, sUA of 9.0 to <10.0 mg/dL at Baseline", "result": "small favorable trend"},
      {"measurement": "change in eGFR over time compared with placebo", "setting": "30 mg BID, sUA≥10.0 mg/dL at Baseline", "result": "small trend was apparent"},
      {"measurement": "change in eGFR over time compared with placebo", "setting": "30 mg BID, serum creatinine 2.0 to <2.5 mg/dL at Baseline", "result": "small favorable trend"},
      {"measurement": "change in mean eGFR levels", "setting": "30 mg BID, Month 12", "result": "small improvement"},
      {"measurement": "eGFR using MDRD formula, Change from Baseline", "setting": "40/80 mg QD, Day 14", "result": "−0.52", "unit": "mL/min/1.73 m^2"},
      {"measurement": "eGFR using MDRD formula, Mean (SD)", "setting": "40/80 mg QD, Day 14", "result": "33.87 (10.259) mL/min/1.73 m^2"},
      {"measurement": "eGFR using MDRD formula, Change from Baseline", "setting": "40/80 mg QD, Month 1", "result": "−0.29", "unit": "mL/min/1.73 m^2"},
      {"measurement": "eGFR using MDRD formula, Mean (SD)", "setting": "40/80 mg QD, Month 1", "result": "33.91 (10.482) mL/min/1.73 m^2"},
      {"measurement": "eGFR using MDRD formula, Change from Baseline", "setting": "40/80 mg QD, Month 3", "result": 0.14, "unit": "mL/min/1.73 m^2"},
      {"measurement": "eGFR using MDRD formula, Mean (SD)", "setting": "40/80 mg QD, Month 3", "result": "34.34 (10.474) mL/min/1.73 m^2"},
      {"measurement": "eGFR Change from Baseline, LS mean (SE)", "setting": "40/80 mg QD, Month 6", "result": "0.04 (0.969) mL/min/1.73 m^2"},
      {"measurement": "eGFR Change from Baseline, LS mean difference (SE) from placebo group", "setting": "40/80 mg QD, Month 6", "result": "1.75 (1.383) mL/min/1.73 m^2"},
      {"measurement": "eGFR using MDRD formula, Change from Baseline", "setting": "40/80 mg QD, Month 6", "result": "−0.03", "unit": "mL/min/1.73 m^2"},
      {"measurement": "eGFR using MDRD formula, Mean (SD)", "setting": "40/80 mg QD, Month 6", "result": "34.18 (11.067) mL/min/1.73 m^2"},
      {"measurement": "eGFR using MDRD formula, Change from Baseline", "setting": "40/80 mg QD, Month 9", "result": 1.18, "unit": "mL/min/1.73 m^2"},
      {"measurement": "eGFR using MDRD formula, Mean (SD)", "setting": "40/80 mg QD, Month 9", "result": "35.39 (10.930) mL/min/1.73 m^2"},
      {"measurement": "eGFR Change from Baseline, LS mean (SE)", "setting": "40/80 mg QD, Month 12", "result": "−0.86 (0.190) mL/min/1.73 m^2"},
      {"measurement": "eGFR Change from Baseline, LS mean difference (SE) from placebo group", "setting": "40/80 mg QD, Month 12", "result": "1.19 (1.698) mL/min/1.73 m^2"},
      {"measurement": "eGFR using MDRD formula, Change from Baseline", "setting": "40/80 mg QD, Month 12", "result": "−0.82", "unit": "mL/min/1.73 m^2"},
      {"measurement": "eGFR using MDRD formula, Mean (SD)", "setting": "40/80 mg QD, Month 12", "result": "33.38 (11.949) mL/min/1.73 m^2"},
      {"measurement": "eGFR Change from Baseline, LS mean (SE)", "setting": "40/80 mg QD, Month 12, listed as febuxostat", "result": "−0.086", "unit": "mL/min/1.73 m^2"},
      {"measurement": "change in eGFR over time", "setting": "40/80 mg QD", "result": "slight improvements"},
      {"measurement": "change in eGFR over time compared with placebo", "setting": "40/80 mg QD, sUA of 9.0 to <10.0 mg/dL at Baseline", "result": "small favorable trend"},
      {"measurement": "change in eGFR over time compared with placebo", "setting": "40/80 mg QD, serum creatinine 2.0 to <2.5 mg/dL at Baseline", "result": "small favorable trend"},
      {"measurement": "change in eGFR levels over time", "setting": "40/80 mg", "result": "moderate to large decreases"},
      {"measurement": "change in mean eGFR levels", "setting": "40/80 mg, Month 12", "result": "small decreases"}
    ]}
  ]
}
